Measured values from patent US20110230477A1, “COMPOUNDS, PHARMACEUTICAL COMPOSITION AND METHODS FOR USE IN TREATING METABOLIC DISORDERS” (Euroscreen S.A., priority 2008, published 2011).
“Also recorded” adds a separate entry of the source.

Legend:
[1] = target: T1, human GPR43 receptor (hGPR43) (Homo sapiens, UniProt O15552); test: GTPγS binding assay (SPA method); format: biochemical; conditions: membranes expressing hGPR43; assay performed in the presence of SCFA; read-out: EC50 (nM) in GTPγ35S assay
T1 construct: expressed in transfected cells
T1 sequence (O15552 1-330): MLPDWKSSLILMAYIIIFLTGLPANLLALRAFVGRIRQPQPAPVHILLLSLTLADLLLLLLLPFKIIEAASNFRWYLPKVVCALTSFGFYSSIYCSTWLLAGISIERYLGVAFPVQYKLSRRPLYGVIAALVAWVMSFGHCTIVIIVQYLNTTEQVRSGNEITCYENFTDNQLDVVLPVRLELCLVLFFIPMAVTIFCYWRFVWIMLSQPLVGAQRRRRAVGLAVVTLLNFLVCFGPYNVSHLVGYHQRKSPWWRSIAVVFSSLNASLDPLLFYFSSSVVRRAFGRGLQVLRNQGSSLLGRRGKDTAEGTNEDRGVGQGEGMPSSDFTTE
Method in brief: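 Membranes (5 μg) from hGPR43-expressing cells were incubated 30 min at room temperature with [35S]GTPγS, compounds (30 μM to 1 nM) and WGA SPA beads. Buffer was 20 mM HEPES pH 7.4, 100 mM NaCl, 10 μg/ml saponin, 30 mM MgCl2 and 10 μM GDP, with SCFA present. Bound label was read by scintillation counting.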

[2] = tested on: adipocytes isolated from normal rats; test: Lipolysis assay in isolated adipocytes (normal rats); format: cell-based; conditions: adipocytes isolated from normal rats (FIGS. 6 and 7)
Protocol: Isolated adipocytes were diluted to 5% in KRH-buffer and were pre-treated with compound of the invention (30 μM, 10 μM and 1 μM) for 30 min at 37° C./120 rpm. After the pre-treatment, Isoprenaline (1 μM) was added to the adipocytes followed by 30 min incubation at 37° C./150 rpm. The reactions were put on ice and the buffer was assayed spectrophotometrically for the production of […] from glycerol breakdown in reactions catalyzed by glycerol kinase and glycerol-3-phosphate dehydrogenase and/or Non Esterified Fatty Acid (NEFA). Each data point was investigated in triplicates in two independent experiments.

[3] = tested on: normal diet fed mice; test: In vivo assay of anti-lipolytic activity in rodent model (plasma FFA); conditions: orally administered, 50mg/kg, 15 minutes following the dosing, vs vehicle (FIG. 8)
Protocol: Male C57BL/6N wild-type are housed one per cage in a room maintained on a 12 h light/dark cycle under constant temperature (22-25° C.) with ad libitum access to food and water. The anti-lipolytic effects of the compounds of the invention are studied in awake mice. Animals are fasted overnight before experimental use. On the day of the experiment, animals are put in metabolic cages and left undisturbed to acclimate to the environment for 1-2 h. blood samples are taken at indicated time points from the intraorbital retrobulbar plexus. A 1% sodium citrate saline solution is used to flush the lines. A pre-treatment blood sample is obtained from each animal to determine baseline values for free fatty acids (FFA) and triglycerides (TG). Compounds of the invention are given via oral gavage, sc injection, iv injection or ip injection for each different series of experiments. Blood samples are collected into pre-cooled tubes pre-coated with heparin (200 μl blood, Li-heparin, Sarstedt) for determination triglycerides and glycerol and in tri-potassium EDTA added sodium fluoride (200 μl blood, K3-EDTA, 1.6 mg/mL+1% NaF, Sarstedt) for determination of plasma free fatty acids. The tubes are placed on wet ice pending processing. Blood samples will be centrifuged at 4000×g, at 4° C., 15 min the resulting plasma will be transferred into non-coated tubes and stored at −80° C. until analyses. […]

[4] = tested on: NCI-H716 cells; test: GLP-1 release from NCI-H716 cells; format: cell-based, Human; conditions: NCI-H716 cells (FIG. 9)
Protocol: Human intestinal cell line NCI-H716 has been described as cellular model to assess compounds mimicking nutrient-mediated effect such as glucagon-like peptide-1 (GLP-1) secretion.
NCl-H716 cells (ATCC, Manassas) are cultured in Dulbecco's modified eagle's medium (DMEM) containing 10% (v/v) bovine serum, 2 mM L-glutamine, 100 IU/ml penicillin and 100 μg/ml streptomycin in 75 ml flask. Cell adhesion and endocrine differentiation is initiated by growing cells in 96-well plate coated with matrigel in High Glucose DMEM containing 10% (v/v) bovine serum, 2 mM L-glutamine, 100 IU/ml penicillin and 100 μg/ml streptomycin for 2 days. On day 2, the medium is removed and cells are washed once with a pre-warmed wash buffer (Phosphate Buffered salt solution). The wash solution is removed and the SCFA or the compounds of the invention, or a combination of both, are added at the desired concentration in High Glucose DMEM containing 0.1% (v/v) bovine serum and incubated for 2 hours at 37° C. The supernatants are collected in a container. Using the cell-free supernatants, the GLP-1 amount is assessed using a GLP-1 specific ELISA assay kit according the manufacturer's recommendations (ALPCON).

Molecule | EC50 [1] | isoprenaline-induced lipolysis [2] | in vivo FFA baseline [3] | GLP-1 secretion [4]
O=C(O)C[C@@H](CC1CCCC1)C(=O)N(c1nc(-c2ccccc2-c2ccc(N3CCCC3=O)nc2)cs1)C1CC1 [Compound 183, (R)-3-(cyclopentylmethyl)-4-(cyclopropyl(4-(2-(6-(2-oxopyrrolidin-1-yl)pyridin-3-yl)phenyl)thiazol-2-yl)amino)-4-oxobutanoic acid] | 57 nM | inhibit | inhibition; also recorded: inhibit | –
COc1ccc(-c2ccccc2-c2csc(N(C(=O)[C@@H](CC(=O)O)CC3CCCC3)C3CC3)n2)cn1 [Compound 169, (R)-3-(cyclopentylmethyl)-4-(cyclopropyl(4-(2-(6-methoxypyridin-3-yl)phenyl)thiazol-2-yl)amino)-4-oxobutanoic acid] | – | inhibit | inhibition; also recorded: inhibit | significantly increases
(3R)-4-((4-(2-chlorophenyl)thiazol-2-yl)(methyl)amino)-4-oxo-3-((tetrahydrofuran-2-yl)methyl)butanoic acid [Compound 155] | 94 nM | inhibit | – | –
COc1ccc(-c2ccccc2-c2csc(N(C)C(=O)[C@@H](CC(=O)O)CC3CCCC3)n2)cn1 [Compound 139, (R)-3-(cyclopentylmethyl)-4-((4-(2-(6-methoxypyridin-3-yl)phenyl)thiazol-2-yl)(methyl)amino)-4-oxobutanoic acid] | 38 nM | inhibit | – | –
COc1ccc(-c2ccccc2-c2csc(N(C)C(=O)[C@@H](CC(=O)O)CC3CCOCC3)n2)cn1 [Compound 160, (R)-4-((4-(2-(6-methoxypyridin-3-yl)phenyl)thiazol-2-yl)(methyl)amino)-4-oxo-3-((tetrahydro-2H-pyran-4-yl)methyl)butanoic acid] | 244 nM | – | – | –
CN(C(=O)[C@@H](CC(=O)O)Cc1ccccc1)c1nc(-c2cc(Cl)cc(Cl)c2Cl)cs1 [Compound 175, (R)-3-benzyl-4-(methyl(4-(2,3,5-trichlorophenyl)thiazol-2-yl)amino)-4-oxobutanoic acid] | 57 nM | – | – | –
CN(C(=O)C(CC(=O)O)Cc1cscn1)c1nc(-c2ccccc2Cl)cs1 (centres unmarked) [Compound 114, 4-((4-(2-chlorophenyl)thiazol-2-yl)(methyl)amino)-4-oxo-3-(thiazol-4-ylmethyl)butanoic acid] | 539 nM | – | – | –
COc1ccc(-c2ccccc2-c2csc(N(C(=O)[C@@H](CC(=O)O)Cc3ccccc3)C3CC3)n2)cn1 [Compound 178, (R)-3-benzyl-4-(cyclopropyl(4-(2-(6-methoxypyridin-3-yl)phenyl)thiazol-2-yl)amino)-4-oxobutanoic acid] | 30 nM | – | – | –
O=C(O)C[C@@H](Cc1cccc(F)c1)C(=O)Nc1nc(-c2ccccc2Cl)cs1 [Compound 93, (R)-4-(4-(2-chlorophenyl)thiazol-2-ylamino)-3-(3-fluorobenzyl)-4-oxobutanoic acid] | 493 nM | – | – | –
C=CCN(C(=O)[C@@H](CC(=O)O)Cc1ccccc1)c1nc(-c2ccccc2Cl)cs1 [Compound 22, (R)-4-(allyl(4-(2-chlorophenyl)thiazol-2-yl)amino)-3-benzyl-4-oxobutanoic acid] | 365 nM | – | – | –
NC(=O)CN(C(=O)[C@@H](CC(=O)O)Cc1ccccc1)c1nc(-c2ccccc2Cl)cs1 [Compound 121, (R)-4-((2-amino-2-oxoethyl)(4-(2-chlorophenyl)thiazol-2-yl)amino)-3-benzyl-4-oxobutanoic acid] | 766 nM | – | – | –
